Holding throughout (test): cells
Set-up in all cases: Cell growth inhibition, sulforhodamine B total protein staining

In one experiment the test system is SKMEL28. Conditions: Homo sapiens, SK-MEL-28; 72 h growth; read-out: Cell growth inhibition IC50/µM. The method in brief:
(§1)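 72 h exposure of a 94-cell-line panel to Glupin; growth measured by sulforhodamine B total-protein staining after TCA fixation (10% adherent, 50% suspension/semi-adherent, 1 h at 4 °C). IC50 derived from growth inhibition.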

The test system of another experiment is MDAMB435. The conditions noted are these: Homo sapiens, MDA-MB-435; 72 h growth; read-out: Cell growth inhibition IC50/µM. Put shortly: as §1
A further experiment deals with COLO205. The conditions noted are these: Homo sapiens, COLO 205; 72 h growth; read-out: Cell growth inhibition IC50/µM. The method in brief: as §1
For the next experiment, the system named is MINO. Conditions: Homo sapiens, MINO; 72 h growth; read-out: Cell growth inhibition IC50/µM. Put shortly: as §1
The test system of a further experiment is K562. Conditions: Homo sapiens, K562; 72 h growth; read-out: Cell growth inhibition IC50/µM. The method in brief: as §1
Another experiment has as its system SKLMS1. The conditions noted are these: Homo sapiens, SK-LMS-1; 72 h growth; read-out: Cell growth inhibition IC50/µM. Put shortly: as §1
Another experiment has as its system 786O. The conditions noted are these: Homo sapiens, 786-0; 72 h growth; read-out: Cell growth inhibition IC50/µM. The method in brief: as §1
Another experiment deals with BXPC3. The conditions noted are these: Homo sapiens, BXPC-3; 72 h growth; read-out: Cell growth inhibition IC50/µM. The method in brief:
as §1

The test system of a further experiment is 22RV1. Conditions: Homo sapiens, 22Rv1; 72 h growth; read-out: Cell growth inhibition IC50/µM. Put shortly:
as §1

A further experiment relates to MDAMB231. Conditions: Homo sapiens, MDA-MB-231; 72 h growth; read-out: Cell growth inhibition IC50/µM. Put shortly:
as §1

A further experiment deals with SUDHL10. The conditions noted are these: Homo sapiens, SU-DHL10; 72 h growth; read-out: Cell growth inhibition IC50/µM. The method in brief:
as §1

A further experiment concerns CAKI1. The conditions noted are these: Homo sapiens, CAKI-1; 72 h growth; read-out: Cell growth inhibition IC50/µM. The method in brief:
as §1

The subject of the next experiment is COLO678. The conditions noted are these: Homo sapiens, COLO-678; 72 h growth; read-out: Cell growth inhibition IC50/µM. The method in brief: as §1
The next experiment relates to SNB75. Conditions: Homo sapiens, SNB-75; 72 h growth; read-out: Cell growth inhibition IC50/µM. The method in brief:
as §1

The test system of another experiment is MV411. The conditions noted are these: Homo sapiens, MV4-11; 72 h growth; read-out: Cell growth inhibition IC50/µM. Put shortly:
as §1

For another experiment, the system named is A431. Conditions: Homo sapiens, A-431; 72 h growth; read-out: Cell growth inhibition IC50/µM. The method in brief: as §1
In another experiment the test system is GRANTA519. The conditions noted are these: Homo sapiens, Granta-519; 72 h growth; read-out: Cell growth inhibition IC50/µM. Put shortly:
as §1

The subject of another experiment is A673. The conditions noted are these: Homo sapiens, A673; 72 h growth; read-out: Cell growth inhibition IC50/µM. Put shortly: as §1
The next experiment has as its system KASUMI1. The conditions noted are these: Homo sapiens, Kasumi 1; 72 h growth; read-out: Cell growth inhibition IC50/µM. Put shortly: as §1
Another experiment relates to MG63. The conditions noted are these: Homo sapiens, MG-63; 72 h growth; read-out: Cell growth inhibition IC50/µM. Put shortly: as §1
For another experiment, the system named is MT3. The conditions noted are these: MT-3; 72 h growth; read-out: Cell growth inhibition IC50/µM. Put shortly: as §1
The next experiment concerns MDAMB468. The conditions noted are these: Homo sapiens, MDA-MB-468; 72 h growth; read-out: Cell growth inhibition IC50/µM. The method in brief:
as §1

SMILES strings stand for the structures.

Regarding `CCOC(=O)Cn1c2c(c3ccccc31)C[C@@H]1C[C@H]2C(OC)CN1C(=O)c1cccnc1SC` (single isomer, unassigned; (+)) [(+)-5a, Glupin], the IC50 in the experiment with SKMEL28 was over 30 µM; with MDAMB435, 0.513 µM; in the experiment with COLO205, 3.73 µM; with MINO it was 1.77 µM; in the experiment with K562, 0.137 µM; with SKLMS1, 0.699 µM. The IC50 was found to be 0.274 µM in the experiment on 786O; 0.591 µM in the experiment on BXPC3; 5.57 µM in the experiment on 22RV1; 8.38 µM in the experiment on MDAMB231; 0.219 µM with SUDHL10; 0.805 µM in the experiment with CAKI1. The IC50 in the experiment with COLO678 is over 30 µM; in the experiment on SNB75, 9.13 µM; in the experiment with MV411 it was over 30 µM; with A431 it was 0.23 µM; in the experiment with GRANTA519, over 30 µM; in the experiment with A673 it was 3.64 µM. Besides, the IC50 in the experiment with KASUMI1 is over 30 µM; in the experiment on MG63 it was over 30 µM; in the experiment with MT3 it was 2.54 µM; with MDAMB468 it was 4.32 µM.

For the origin of these results see PMC6900016, “Synthesis of Indomorphan Pseudo‐Natural Product Inhibitors of Glucose Transporters GLUT‐1 and ‐3” (Angewandte Chemie (International Ed. in English), 2019).
